Data: patent publication US11752125B2, “Anti-neuroinflammatory and protective compounds in Achillea fragrantissima” (THE STATE OF ISRAEL MINISTRY OF AGRICULTURE & RURAL …, priority 2013, dated 2023)

Tests used:
SAPK/JNK = experiment: H2O2-induced SAPK/JNK phosphorylation in astrocytes (ELISA); type: cell-based, rat; settings: H2O2 175 μM 40 min
Experimental: Astrocytes were treated with TTF 2 h before the addition of H2O2. Cells were lysed 40 minutes after the addition of H2O2 in lysis buffer supplied by PathScan sandwich ELISA kit (Cell Signaling TECHNOLOGY) according to the manufacturer's protocol. Protein concentrations in cell lysates were determined by Bradford reagent (Bio-Rad, Hercules, Calif.), and equal amounts of proteins were subjected to ELISA. To measure the amount of total and phosphoSAPK/JNK in cell lysates of astrocytes, ELISA was performed according to the manufacturer's protocol using the PathScan total SAPK/JNK sandwich ELISA kit (Cell Signaling TECHNOLOGY) and the PathScan phospho-SAPK/JNK (Thr183/Tyr185) sandwich ELISA kit (Cell Signaling TECHNOLOGY), respectively. […] The optical density was determined at 450 nm using a microplate reader.
1. […] Determine the optical density at 450 nm using a microplate reader.
Astrocytes were treated with 175 μM of H2O2 for 40 min following preincubation with TTF for 2 h. The levels of phosphorylated and total SAPK/JNK (FIG. 3A), MEK1 (FIG. 3B) and ERK 1/2 (FIG. 3C) were measured by ELISA. […]

CREB = experiment: Aβ25-35-induced CREB phosphorylation in N2a cells (ELISA); type: cell-based; settings: concomitant treatment 30 min
Experimental: 7. Measure the amount of total and phosphorylated CREB in cell lysates of N2a cells, by ELISA using the PathScan total CREB sandwich ELISA kit (Cell Signaling TECHNOLOGY) or the PathScan phosoho-CREB (Ser133) sandwich ELISA kit (Cell Signaling TECHNOLOGY), respectively. 8. Determine the optical density at 450 nm using a microplate reader.
N2a cells were treated concomitantly with Aβ25-35 and TTF for 30 min. Cells were extracted and the levels of phosphorylated (FIG. 15 A) or total (FIG. 15 B) CREB were determined by specific ELISA kits. The results are the mean±SEM of one experiment (n=2).
N2a cells were treated concomitantly with Aβ25-35 and AcA for 30 min. Cells were extracted and the levels of phosphorylated CREB were determined by A specific ELISA kit. The results are the mean±SEM of one experiment (n=2).

N2a neuronal cells = experiment: Glutamate-induced neuronal cell death (LDH); type: cell-based; settings: LDH 20 hr later
Experimental: Grow N2a cells in DMEM (high glucose, 225 ml), Opti-MEM (250 ml) containing 1% Fetal Bovine Serum, 2 mM L-Glutamine, 100 U/ml penicillin and 100 micrograms/mL streptomycin.
Treat N2a neuronal cells with AcA or TTF.
Two hr later add 100 micromolars of freshly diluted glutamate;
Incubate the culture for 20 hr (37° C., 5% CO2);
Measure cytotoxicity by the LDH method
N2a neuronal cells were treated with glutamate (100 μM) and TTF. Cytotoxicity was measured 20 hr later. The results are shown in FIG. 16 and are the mean±SEM of one experiment (n=8).
Achillolide A was added to N2a cells before (−2 h, −1 h) concomitant (0) or after (1 h, 2 h) the addition of glutamate. Cytotoxicity was measured 20 h later by the levels of LDH in the conditioned media. Results are means±SEM of two experiments (n=16). **P<0.01, ***P<0.001, compared to cells that were treated with glutamate only.
N2a neuronal cells were treated with Aβ25-35 (25 μM) and achillolide A. Cytotoxicity was measured 20 hr later. The results are the means±SEM of two different experiments (n=16).
N2a neuronal cells were treated with Aβ25-35 (25 μM) and achillolide A or memantine. Cytotoxicity was measured 20 hr later. The results are the mean±SEM of two different experiments (n=16) for AcA and one experiment (n=8) for memantine.

SMILES	inhibition of H2O2-induced phosphorylation of SAPK/JNK (SAPK/JNK; astrocytes pretreated 2 h, total SAPK/JNK not affected) [%]	effect on Aβ25-35-induced phosphorylation of CREB (CREB)	effect on glutamate-induced cytotoxicity (N2a neuronal cells)	effect on H2O2-induced phosphorylation of SAPK/JNK (SAPK/JNK; astrocytes preincubated 2 h)
COc1cc(-c2oc3cc(OC)c(OC)c(O)c3c(=O)c2O)ccc1O [TTF, 3,5,4′-trihydroxy-6,7,3′-trimethoxyflavone]	80	significantly inhibited	prevents the cytotoxic effect at nanomolar concentrations	
C=C1CCC2=C(CO)C(=O)O[C@H]2/C=C(\C)[C@H](OC(C)=O)CC1=O [achillolide A]		down-regulates	prevents the cytotoxic effect at nanomolar concentrations	inhibitory effect
